Test [1] has as its system Staphylococcus aureus. Briefly: Antimicrobial activity against methicillin-resistant Staphylococcus aureus A6298 by agar dilution method. Type of test: functional.
In test [2] the test system is Staphylococcus aureus. Briefly: Antimicrobial activity against methicillin-resistant Staphylococcus aureus A8799 with mprF S337L mutation by agar dilution method. Type of test: functional.
Test [3] relates to Staphylococcus aureus. The test can be described thus: Antimicrobial activity against methicillin-resistant Staphylococcus aureus A6300 by agar dilution method. Type of test: functional. (Agar dilution tests growth on a series of plates holding different concentrations.)
The test system of test [4] is Staphylococcus aureus. Briefly: Antimicrobial activity against methicillin-resistant Staphylococcus aureus A8094 by agar dilution method. Type of test: functional.
Test [5] deals with Staphylococcus aureus. Briefly: Antimicrobial activity against methicillin-resistant Staphylococcus aureus A6226 by agar dilution method. Type of test: functional.
Test [6] concerns Staphylococcus aureus. The test can be described thus: Antimicrobial activity against methicillin-resistant Staphylococcus aureus A6224 by agar dilution method.
Test [7] has as its system Staphylococcus aureus. Briefly: Antimicrobial activity against methicillin-resistant Staphylococcus aureus A8090 by agar dilution method.
Test [8] concerns Staphylococcus aureus. Briefly: Antimicrobial activity against methicillin-resistant Staphylococcus aureus A8796 by agar dilution method.

Converted amounts (≈) assume the structure as drawn.

Results on 1 molecule are retold here after ChEMBL document CHEMBL1143853, “Daptomycin nonsusceptibility in Staphylococcus aureus with reduced vancomycin susceptibility is independent of alterations in MprF” (2007).

For `CCCCCCCCCC(=O)N[C@@H](Cc1c[nH]c2ccccc12)C(=O)N[C@H](CC(N)=O)C(=O)N[C@@H](CC(=O)O)C(=O)N[C@@H]1C(=O)NCC(=O)N[C@@H](CCCN)C(=O)N[C@@H](CC(=O)O)C(=O)N[C@H](C)C(=O)N[C@@H](CC(=O)O)C(=O)NCC(=O)N[C@H](CO)C(=O)N[C@@H]([C@H](C)CC(=O)O)C(=O)N[C@@H](CC(=O)c2ccccc2N)C(=O)O[C@@H]1C`, the MIC – broadly, the least concentration at which growth counts as inhibited – against Staphylococcus aureus [1] stood at 2 µg/mL (≈ 1.23 µM); with Staphylococcus aureus [2] it was 2 µg/mL (≈ 1.23 µM); in the test on Staphylococcus aureus [3], 1 µg/mL (≈ 0.617 µM); against Staphylococcus aureus [4], 2 µg/mL (≈ 1.23 µM); against Staphylococcus aureus [5], 2 µg/mL (≈ 1.23 µM); in the test on Staphylococcus aureus [6], 0.5 µg/mL (≈ 0.309 µM). For the same molecule, the MIC with Staphylococcus aureus [7] and against Staphylococcus aureus [8] was 0.5 µg/mL (≈ 0.309 µM) each time.
